# Patent publication EP4722219A1 (Gan & Lee Pharmaceuticals Co., Ltd., priority 2023, dated 2024)
# Experiments:
# AR protein = molecular target: T1, AR protein (Homo sapiens, UniProt P10275); assay: AR protein degradation in VCaP cells (Western blot); format: cell-based; conditions: 8h
# T1 construct: host or cells: VCaP
# T1 sequence (P10275 1-920): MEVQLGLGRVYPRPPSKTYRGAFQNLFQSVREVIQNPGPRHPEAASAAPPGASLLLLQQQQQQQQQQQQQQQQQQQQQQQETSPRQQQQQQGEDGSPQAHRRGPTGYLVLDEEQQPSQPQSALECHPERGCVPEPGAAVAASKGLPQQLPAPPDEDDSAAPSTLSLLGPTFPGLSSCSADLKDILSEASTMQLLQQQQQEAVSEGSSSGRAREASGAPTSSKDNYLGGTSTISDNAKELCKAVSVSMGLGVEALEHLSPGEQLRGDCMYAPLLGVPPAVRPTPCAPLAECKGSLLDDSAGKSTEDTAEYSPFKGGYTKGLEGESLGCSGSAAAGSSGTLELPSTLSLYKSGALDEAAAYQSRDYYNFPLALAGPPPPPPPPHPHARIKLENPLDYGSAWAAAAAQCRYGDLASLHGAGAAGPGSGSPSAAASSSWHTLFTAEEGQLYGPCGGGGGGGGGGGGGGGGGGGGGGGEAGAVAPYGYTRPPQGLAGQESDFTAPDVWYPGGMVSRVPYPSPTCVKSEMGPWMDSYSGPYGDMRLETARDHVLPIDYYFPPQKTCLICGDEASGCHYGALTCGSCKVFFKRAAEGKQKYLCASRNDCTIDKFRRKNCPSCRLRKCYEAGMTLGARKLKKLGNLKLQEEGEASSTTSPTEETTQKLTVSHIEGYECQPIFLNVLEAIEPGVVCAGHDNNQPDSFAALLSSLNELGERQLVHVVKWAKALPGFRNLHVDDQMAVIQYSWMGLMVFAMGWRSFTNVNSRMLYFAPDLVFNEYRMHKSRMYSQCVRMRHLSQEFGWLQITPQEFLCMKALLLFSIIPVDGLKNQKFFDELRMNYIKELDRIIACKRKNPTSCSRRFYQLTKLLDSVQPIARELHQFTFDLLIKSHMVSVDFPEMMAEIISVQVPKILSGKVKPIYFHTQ
# Outline: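 AR-positive VCaP human prostate cancer cells grown in DMEM with 10% FBS were plated in six-well plates at 3×10^5 cells/well and incubated overnight. Compounds were then added at 1 µL/well alongside a solvent control and incubated for 8h. Lysates in RIPA buffer with protease inhibitor were quantified by BCA and run by SDS-PAGE. AR was detected by Western blot, and degradation was calculated from band grayscale normalized to GAPDH.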
# VCaP cells = assay: Inhibition of VCaP cell proliferation (WST-8); format: cell-based; conditions: 168 hours
# Outline: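 Proliferation was read on day 9 as WST-8 absorbance at 450 nm after VCaP cells (15,000/well, DMEM/10% FBS, 37°C) were exposed from day 2 to compound at 9 points, 5-fold serial dilution, top final concentration 10 µM.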
Degradation rate of AR protein in VCaP cells (AR protein; 0.5 nM),Degradation rate of AR protein in VCaP cells (AR protein; 5 nM),Compound,IC50 (VCaP cells; Homo sapiens),AR protein degradation rate at fixed concentration (%) at 0.0005 µM (AR protein; 0.5 nM),AR protein degradation rate at fixed concentration (%) at 0.005 µM (AR protein; 5 nM),IC50 (VCaP cells)
-8%,10%,COc1cc(O[C@H]2C(C)(C)[C@H](NC(=O)c3ccc(N4CCC(CN5CCC6(CCc7cc(F)c(C(=O)N[C@H]8CCC(=O)NC8=O)cc7O6)CC5)(OC)CC4)cc3)C2(C)C)ccc1C#N [A-P-40],> 10000 nM,,,
0%,47%,"COc1cc(O[C@H]2C(C)(C)[C@H](NC(=O)c3ccc(N4CCC(CN5CCC6(CCc7cc(C(=O)N[C@H]8CCC(=O)NC8=O)c(F)cc7O6)CC5)CC4)nn3)C2(C)C)ccc1C#N [A-P-34, 1'-((1-(6-(((1R,3R)-3-(4-cyano-3-methoxyphenoxy)-2,2,4,4-tetramethylcyclobutyl)carbamoyl)pyridazin-3-yl)piperidin-4-yl)methyl)-N-((S)-2,6-dioxopiperidin-3-yl)-7-fluorospiro[chroman-2,4'-piperidin]-6-carboxamide]",0.29 nM,,,
,,Cn1c(=O)n(C2CCC(=O)NC2=O)c2ccc3c(c21)OCC31CCN(C2CC3(CCN(c4ccc(C(=O)N[C@H]5CC[C@H](Oc6ccc(C#N)c(Cl)c6)CC5)nn4)CC3)C2)CC1 (stereo partly drawn) [A-P-25],0.14 nM,91%,90%,
,,Cn1c(=O)n(C2CCC(=O)NC2=O)c2cc3c(cc21)C1(CCN(CC2CCN(c4ccc(C(=O)N[C@H]5CC[C@H](Oc6ccc(C#N)c(Cl)c6)CC5)nn4)CC2)CC1)CO3 (stereo partly drawn) [A-P-10],6 nM,75%,78%,
,,Cn1c(=O)n(C2CCC(=O)NC2=O)c2ccc3c(c21)OCC31CCN(C2CCN(c3ccc(C(=O)N[C@H]4CC[C@H](Oc5ccc(C#N)c(Cl)c5)CC4)nn3)CC2)CC1 (stereo partly drawn) [A-P-23],0.046 nM,85%,74%,
38%,73%,COc1cc(O[C@H]2C(C)(C)[C@H](NC(=O)c3ccc(N4CCC(F)(CN5CC6(CCC7(CC6)COc6c7ccc7c6CN(C6CCC(=O)NC6=O)C7=O)C5)CC4)cc3)C2(C)C)ccc1C#N (relative stereo) [A-P-5],1.7 nM,,,
14%,59%,"N-(1r,4r)-4-(3-chloro-4-cyanophenoxy)cyclohexy 1)-6-(4-(7-(2,6-dioxopiperidin-3-yl))-6-oxo-7,8-dihydro-2H,6H-dipyrido[2,3-e]isoindole-3,1'-cyclohexane-4',4‴-piperidin]-1""-yl)pyridazine-3-carboxamide [A-P-32]",,,,1230 nM
,,Cn1c(=O)n(C2CCC(=O)NC2=O)c2ccc3c(c21)OCC31CCN(CC2CCN(c3ccc(C(=O)N[C@H]4CC[C@H](Oc5ccc(C#N)c(Cl)c5)CC4)nn3)CC2)CC1 (stereo partly drawn) [A-P-24],0.0081 nM,85%,85%,
20%,70%,COc1cc(O[C@H]2C(C)(C)[C@H](NC(=O)c3ccc(N4CCC(CN5CCN6c7ccc(C(=O)N[C@H]8CCC(=O)NC8=O)cc7OC[C@@H]6C5)CC4)cc3)C2(C)C)ccc1C#N [A-P-67],170 nM,,,
-21%,-5%,"COc1cc(O[C@H]2C(C)(C)[C@H](NC(=O)c3ccc(N4CCC(C)(CN5CCC6(CCc7cc(F)c(C(=O)N[C@H]8CCC(=O)NC8=O)cc7O6)CC5)CC4)cc3)C2(C)C)ccc1C#N [A-P-38, 1-(1-(4-((1R,3R)-3-((4-cyano-3-methoxyphenoxy)-2,2,4,4-tetramethylcyclobutyl)carbamoyl)phenyl)-4-methylpiperidin-4-methyl)-N-((S)-2,6-dioxopiperidin-3-yl)-6-fluorospiro[chroman-2,4'-piperidin]-7-carboxamide]",> 10000 nM,,,
13%,18%,COc1cc(O[C@H]2C(C)(C)[C@H](NC(=O)c3ccc(N4CCC(F)(CN5CCC6(CCc7cc(F)c(C(=O)N[C@H]8CCC(=O)NC8=O)cc7O6)CC5)CC4)cc3)C2(C)C)ccc1C#N [A-P-41],> 10000 nM,,,
-15%,45%,"COc1cc(O[C@H]2C(C)(C)[C@H](NC(=O)c3ccc(N4CCC(C)(CN5CCC6(CCc7cc(C(=O)N[C@H]8CCC(=O)NC8=O)c(F)cc7O6)CC5)CC4)nc3)C2(C)C)ccc1C#N [A-P-49, 1'-((1-(5-(((1R,3R)-3-(4-cyano-3-methoxyphenoxy)-2,2,4,4-tetramethylcyclobutyl)carbamoyl)pyridin-2-yl)-4-methylpiperidin-4-yl)methyl)-N-((S)-2,6-dioxopiperidin-3-yl)-7-fluorospiro[chroman-2,4'-piperidin]-6-carboxamide]",41 nM,,,

Compound,Degradation rate of AR protein in VCaP cells (AR protein; 0.5 nM),Degradation rate of AR protein in VCaP cells (AR protein; 5 nM),IC50 (VCaP cells; Homo sapiens),AR protein degradation rate at fixed concentration (%) at 0.0005 µM (AR protein; 0.5 nM),AR protein degradation rate at fixed concentration (%) at 0.005 µM (AR protein; 5 nM),IC50 (VCaP cells)
"Cn1c(=O)n(C2CCC(=O)NC2=O)c2cc3c(cc21)C1(CCN(C2CC4(CCN(c5ccc(C(=O)N[C@H]6CC[C@H](Oc7ccc(C#N)c(Cl)c7)CC6)nn5)CC4)C2)CC1)CO3 (relative stereo) [A-P-12, N-((1r,4r)-4-(3-chloro-4-cyanophenoxy)cyclohexy 1)-6-(2-(3-(2,6-dioxopiperidin-3-yl)-1-methyl-2-oxo-2,3-dihydro-1H,6H-spiro[benzofuro[5,6-d]imidazole-7,4'-piperidin]-1'-yl)-7-azaspiro[3.5]nonan-7-yl)pyridazine-3-carboxamide]",88%,88%,0.023 nM,,,
C[C@H]1CC2(CCN(c3ccc(C(=O)N4CCC(CN5CCN6c7ccc(C(=O)N[C@H]8CCC(=O)NC8=O)cc7OC[C@@H]6C5)CC4)cc3)CC2)CN1c1ccc(C#N)c(Cl)c1 [A-P-69],-9%,18%,1320 nM,,,
"(S)-3-((1-(4-(((S)-2-(3-chloro-4-cyanophenyl)-3-methyl-2,8-diazaspiro[4.5]decan-8-yl)phenyl)piperidin-4-yl)methyl)-N-(((S)-2,6-dioxopiperidin-3-yl)-1,2,3,4,4a,5-hexahydrobenzo[b]pyrazi no[1,2-d][1,4]oxazine-8-carboxamide [A-P-57]",-31%,-21%,,,,3020 nM
C[C@H]1CC2(CCN(c3ccc(C(=O)N4CCC(CN5CCN6c7ccc(C(=O)N[C@H]8CCC(=O)NC8=O)cc7OC[C@H]6C5)CC4)cc3)CC2)CN1c1ccc(C#N)c(Cl)c1 [A-P-68],5%,33%,4.5 nM,,,
"COc1cc(O[C@H]2C(C)(C)[C@H](NC(=O)c3ccc(N4CCC5(CC4)CC(N4CCC6(CC4)COc4cc7c(cc46)n(C)c(=O)n7C4CCC(=O)NC4=O)C5)nn3)C2(C)C)ccc1C#N (relative stereo) [A-P-14, N-((1r,3r)-3-(4-cyano-3-methoxyphenoxy)-2,2,4,4-tetramethylcyclobutyl)-6-(2-(3-(2,6-dioxopiperidin-3-yl)-1-methyl-2-oxo-2,3-dihydro-1H,6H-spiro[benzofuro[5,6-d]imidazole-7,4'-piperidin]-1'-yl)-7-azaspiro[3.5]nonan-7-yl)pyridazine-3-carboxamide]",63%,82%,2.2 nM,,,
